Results reported in EP1369120B1 (priority 2002, dated 2003).
Where “and” joins values, the source holds several entries; their conditions need not be identical. Equal values may be shown once. Read-outs that look alike come from different tables or passages of the source.

Legend:
[1] = tested on: HCV sub-genomic replicons (Ava.5); assay: microbe, parasite or virus in culture; type: cell-based, hepatitis C virus
[2] = tested on: Huh-7 cells containing HCV sub-genomic replicons (Ava.5); assay: cells; type: cell-based
HCV = type: cell-based; conditions: 300 nM As2O3 (data not shown)
[3] = huh-7 hcv replicon cells, 1440 min, 1 µM
[4] = huh-7 hcv replicon cells, 4320 min, 0.01 µM
[5] = huh-7 hcv replicon cells, 4320 min, 0.05 µM
[6] = huh-7 hcv replicon cells, 4320 min, 0.1 µM
[7] = huh-7 hcv replicon cells, 4320 min, 1 µM

| Compound | EC50 ([1]; Hepatitis C virus, Ava5, 24 h) | IC50 ([2]; Hepatitis C virus, Ava5, 24 h) | inhibition of HCV replication ([1]; 5 µM) | IC50 ([2]; read-out: IC50) | inhibition of the replication (HCV) | inhibition of replication of HCV RNA [1] | negative strand of HCV RNA detected (relative copy number) [1, 3] | positive strand of HCV RNA detected (relative copy number) [1, 3] | relative HCV RNA level (negative strand) [1, 4] | relative HCV RNA level (positive strand) [1, 4] | relative HCV RNA level (negative strand) [1, 5] | relative HCV RNA level (positive strand) [1, 5] | relative HCV RNA level (negative strand) [1, 6] | relative HCV RNA level (positive strand) [1, 6] | negative strand HCV RNA detected (relative copy number) [1, 7] | positive strand RNA detected (relative copy number) [1, 7] | EC50 ([1]; read-out: EC50) | IC50 ([2]; read-out: ICso (concentration which causes 50% cell death)) |
| --- | --- | --- | --- | --- | --- | --- | --- | --- | --- | --- | --- | --- | --- | --- | --- | --- | --- | --- |
| O=[As]O [Sodium arsenite] | 250 nM | 10 µM |  |  |  |  |  |  |  |  |  |  |  |  |  |  |  |  |
| Potassium antimony tartrate [Potassium antimony tartrate (PAT)] |  |  | 75 % inhibition of HCV replication at 5 µM of PAT treatment | 35 µM |  |  |  |  |  |  |  |  |  |  |  |  |  |  |
| arsenic trioxide [As2O3] |  |  |  | 6 µM | completely | dose-dependent manner | 14.1% | 15.6% | 135.3% | 95.1% | 74.3% | 70% | 67.5% | 57.5% | 2.6% | 6.1% | 260 nM and 190 nM and 270 nM and 160 nM and 200 nM | 8.5 µM and 4.8 µM |
